Test results reported in ChEMBL document CHEMBL1649162, “Fenticonazole activity measured by the methods of the European Committee on Antimicrobial Susceptibility Testing and CLSI against 260 Candida vulvovaginitis isolates from two European regions and annotations on the prevalent genotypes” (2009).
Converted amounts (≈) assume the structure as drawn.

Experiments:
Assay type in all cases: functional
Pichia kudriavzevii [1] = assay: Antimicrobial activity against Candida krusei ATCC 6258 by CLSI M27-A2 broth microdilution method
Nakaseomyces glabratus [2] = assay: Antimicrobial activity against Candida glabrata by CLSI M27-A2 broth microdilution method
Nakaseomyces glabratus [3] = assay: Antimicrobial activity against Candida glabrata by EUCAST broth microdilution method
Candida albicans [4] = assay: Antimicrobial activity against Candida albicans by EUCAST broth microdilution method
Pichia kudriavzevii [5] = assay: Antimicrobial activity against Candida krusei ATCC 6258 by EUCAST broth microdilution method
Candida parapsilosis [6] = assay: Antimicrobial activity against Candida parapsilosis ATCC 22019 by CLSI M27-A2 broth microdilution method; details: Lodderomyces parapsilosis
Candida albicans [7] = assay: Antimicrobial activity against Candida albicans by CLSI M27-A2 broth microdilution method
Candida parapsilosis [8] = assay: Antimicrobial activity against Candida parapsilosis ATCC 22019 by EUCAST broth microdilution method; details: Lodderomyces parapsilosis

Structure (SMILES) | MIC50 (Pichia kudriavzevii [1]) [µg/mL] | MIC50 (Nakaseomyces glabratus [2]) [µg/mL] | MIC50 (Nakaseomyces glabratus [3]) [µg/mL] | MIC50 (Candida albicans [4]) [µg/mL] | MIC50 (Pichia kudriavzevii [5]) [µg/mL] | MIC50 (Candida parapsilosis [6]) [µg/mL] | MIC50 (Candida albicans [7]) [µg/mL] | MIC50 (Candida parapsilosis [8]) [µg/mL]
OC(Cn1cncn1)(Cn1cncn1)c1ccc(F)cc1F [FLUCONAZOLE] | 16 (≈ 52.2 µM) | 2 (≈ 6.53 µM) | 2 (≈ 6.53 µM) | 0.12 (≈ 0.392 µM) | 32 (≈ 104 µM) | 2 (≈ 6.53 µM) | 0.12 (≈ 0.392 µM) | 0.5 (≈ 1.63 µM)
CC(=O)N1CCN(c2ccc(OCC3COC(Cn4ccnc4)(c4ccc(Cl)cc4Cl)O3)cc2)CC1 (configuration not stated) [KETOCONAZOLE] | 0.25 (≈ 0.47 µM) | 0.5 (≈ 0.941 µM) | 2 (≈ 3.76 µM) | 0.12 (≈ 0.226 µM) | 0.12 (≈ 0.226 µM) | 0.12 (≈ 0.226 µM) | 0.12 (≈ 0.226 µM) | 0.12 (≈ 0.226 µM)
Clc1ccc(C(Cn2ccnc2)OCc2ccc(Sc3ccccc3)cc2)c(Cl)c1 (configuration not stated) [FENTICONAZOLE] | 0.06 (≈ 0.132 µM) | 0.03 (≈ 0.0659 µM) | 0.03 (≈ 0.0659 µM) | 0.03 (≈ 0.0659 µM) | 0.06 (≈ 0.132 µM) | 0.03 (≈ 0.0659 µM) | 0.03 (≈ 0.0659 µM) | 0.03 (≈ 0.0659 µM)
CCC(C)n1ncn(-c2ccc(N3CCN(c4ccc(OCC5COC(Cn6cncn6)(c6ccc(Cl)cc6Cl)O5)cc4)CC3)cc2)c1=O (configuration not stated) [ITRACONAZOLE] | 0.12 (≈ 0.17 µM) | 0.03 (≈ 0.0425 µM) | 0.03 (≈ 0.0425 µM) | 0.03 (≈ 0.0425 µM) | 0.03 (≈ 0.0425 µM) | 0.06 (≈ 0.085 µM) | 0.03 (≈ 0.0425 µM) | 0.06 (≈ 0.085 µM)
